According to US20260158020A1, “COMPOSITIONS AND USES THEREOF” (BENEVOLENTAI CAMBRIDGE LIMITED, priority 2020, published 2026):
Like-named read-outs stand apart in the source and are kept apart here.

What was measured:
rats = conditions: cited from earlier work
[1] = test system: rodents with induced memory deficits; conditions: oral, 0.1 to 3 mg/kg; cited from earlier work
[2] = oral, rodents; cited from earlier work
other PDE family members [3] = conditions: cited from earlier work
PDE10A [4] = target: T1, PDE10A (Homo sapiens, UniProt Q9Y233); conditions: read-out: binding affinity (Kd) PDE10A; cited from earlier work
T1 sequence (Q9Y233 whole entry): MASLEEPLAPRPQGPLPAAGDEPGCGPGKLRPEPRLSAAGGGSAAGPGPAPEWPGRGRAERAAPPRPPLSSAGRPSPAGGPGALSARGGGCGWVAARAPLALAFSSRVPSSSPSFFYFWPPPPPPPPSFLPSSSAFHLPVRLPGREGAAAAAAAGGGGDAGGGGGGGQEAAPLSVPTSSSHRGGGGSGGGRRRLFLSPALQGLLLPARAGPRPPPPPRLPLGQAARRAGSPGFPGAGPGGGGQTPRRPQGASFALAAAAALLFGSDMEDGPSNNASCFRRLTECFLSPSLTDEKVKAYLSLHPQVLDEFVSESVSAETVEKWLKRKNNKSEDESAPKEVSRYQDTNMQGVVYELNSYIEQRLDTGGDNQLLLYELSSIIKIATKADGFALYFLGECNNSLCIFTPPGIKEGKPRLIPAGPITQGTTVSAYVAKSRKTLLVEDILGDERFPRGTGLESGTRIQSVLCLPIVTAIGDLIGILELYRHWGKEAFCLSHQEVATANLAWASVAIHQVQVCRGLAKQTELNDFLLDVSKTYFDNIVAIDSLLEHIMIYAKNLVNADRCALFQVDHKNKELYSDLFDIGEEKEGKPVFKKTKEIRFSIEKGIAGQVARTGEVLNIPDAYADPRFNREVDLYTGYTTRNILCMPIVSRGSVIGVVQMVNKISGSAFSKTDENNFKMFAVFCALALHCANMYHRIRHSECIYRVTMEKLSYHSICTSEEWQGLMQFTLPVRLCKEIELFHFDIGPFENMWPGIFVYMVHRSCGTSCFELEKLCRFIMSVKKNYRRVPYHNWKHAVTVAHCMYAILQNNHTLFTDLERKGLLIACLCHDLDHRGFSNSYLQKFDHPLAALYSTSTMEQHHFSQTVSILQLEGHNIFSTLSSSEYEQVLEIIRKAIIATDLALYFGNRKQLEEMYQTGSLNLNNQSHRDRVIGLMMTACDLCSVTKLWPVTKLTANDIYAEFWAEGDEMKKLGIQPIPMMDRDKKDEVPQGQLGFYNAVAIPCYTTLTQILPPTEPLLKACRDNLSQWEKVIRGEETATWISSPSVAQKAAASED

PDE10A [5] = target: T1, PDE10A; conditions: cited from earlier work
[6] = test system: animals, conditioned avoidance response model; conditions: cited from earlier work
other PDE family members [7] = test system: T2, other PDE family members; conditions: isolated enzyme biochemical assays; literature (Grauer 2009; Kunitomo 2014); read-out: IC50s for other PDE family members; cited from earlier work
T2 construct: other: isolated enzyme biochemical assays; literature (Grauer 2009; Kunitomo 2014)

[8] = test system: inflamed colonic mucosa from treatment-refractory ulcerative colitis patients; assay: Ex-vivo culture of inflamed colon tissue from surgical resection of treatment-refractory UC patients, TNFα release (Method 2); type: cell-based, human; conditions: colon samples from two treatment-refractory UC patients, with SEB, about 18 h, vs DMSO vehicle; printed 1 M (FIG. 6: 1 μM)
[9] = test system: inflamed colonic mucosa from ulcerative colitis patients; assay: Ex-vivo culture of colon biopsies from ulcerative colitis patients, cytokine release (Method 1); type: cell-based, human; conditions: colon biopsy samples from two UC patients, vs DMSO vehicle, PF-02545920 0.1 and 1 μM, TAK-063 1 μM, FIGS. 4 and 5
Method: The effect of selective PDE10 inhibition was tested on inflamed colonic mucosa from ulcerative colitis patients taken during routine endoscopy (Method 1 detailed below). These samples retain a disease phenotype in ex-vivo culture and secrete high basal levels of inflammatory cytokines. The effect of selective PDE10 inhibition on levels of the inflammatory cytokines IL-8 and IL-6 released from these tissue samples was measured.
These colon biopsies retain an inflammatory phenotype and secrete high levels of inflammatory cytokines in ex-vivo culture. […] The doses tested of each inhibitor will result in selective PDE10A inhibition over the other PDE family members.
Biopsy tissue was obtained from inflamed colonic mucosa from ulcerative colitis patients during routine endoscopy. Ex-vivo biopsy cultures for the analysis of inflammatory cytokine biomarkers were run as previously described (Vossenkämper A. et al. A CD3-specific antibody reduces cytokine production and alters phosphoprotein profiles in intestinal tissues from patients with inflammatory bowel disease. Gastroenterology, 2014, 147, 172-183). […] Supernatants collected at the end of the experiment were snap-frozen and stored at −70° C. For the measurement of cytokines, the frozen culture supernatants were thawed and analysed for levels of the inflammatory cytokines using Luminex cytokine assay kits (R&D Systems) and an R&D Systems MAGPIX® analyser. Mean values±SDs were calculated for the levels of spontaneous cytokine production measured in biopsy culture supernatants from each treatment group.

[10] = test system: isolated human neutrophils; assay: In vitro assay of IL-8 neutrophil activation; type: cell-based; conditions: FIG. 3
[11] = test system: rat models relevant to schizophrenia; conditions: 0.1-0.3 mg/kg; cited from earlier work
human PDE10 = human PDE10 (Homo sapiens, UniProt Q9Y233); conditions: cited from earlier work
Chain of human PDE10 (Q9Y233 whole entry): as above

rat PDE10 = target: T3, rat PDE10 (Rattus norvegicus, UniProt Q9QYJ6); conditions: cited from earlier work
T3 sequence (Q9QYJ6 1-794): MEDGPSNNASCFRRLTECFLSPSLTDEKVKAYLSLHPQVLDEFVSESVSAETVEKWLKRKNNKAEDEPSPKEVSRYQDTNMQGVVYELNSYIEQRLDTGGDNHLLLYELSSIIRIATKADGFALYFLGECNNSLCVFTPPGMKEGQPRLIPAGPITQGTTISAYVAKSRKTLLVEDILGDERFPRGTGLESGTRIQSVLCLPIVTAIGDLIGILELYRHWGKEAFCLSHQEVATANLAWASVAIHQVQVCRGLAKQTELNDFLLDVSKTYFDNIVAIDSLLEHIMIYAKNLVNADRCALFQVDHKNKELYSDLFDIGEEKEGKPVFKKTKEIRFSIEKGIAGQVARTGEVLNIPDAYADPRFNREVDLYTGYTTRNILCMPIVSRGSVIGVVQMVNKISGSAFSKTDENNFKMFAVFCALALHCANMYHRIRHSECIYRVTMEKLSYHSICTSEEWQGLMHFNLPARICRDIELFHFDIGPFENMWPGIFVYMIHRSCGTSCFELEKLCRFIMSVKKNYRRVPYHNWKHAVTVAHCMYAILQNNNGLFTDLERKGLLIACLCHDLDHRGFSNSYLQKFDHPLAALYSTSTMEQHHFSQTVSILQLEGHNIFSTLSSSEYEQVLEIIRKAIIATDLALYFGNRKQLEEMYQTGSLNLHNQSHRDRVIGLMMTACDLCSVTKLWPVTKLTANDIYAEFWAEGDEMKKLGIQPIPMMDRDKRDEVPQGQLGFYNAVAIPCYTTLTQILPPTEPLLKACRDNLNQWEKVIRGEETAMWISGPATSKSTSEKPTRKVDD

[12] = test system: rat models relevant to schizophrenia; conditions: 0.1-0.3 mg/kg; cited from earlier work; remark: listed apart in the source
[13] = cited from earlier work

For `COc1cc2ncnc(N3CC[C@@H](Oc4cnc5ccccc5n4)C3)c2cc1OC` [PQ-10, 6,7-dimethoxy-4-[(3R)-3-quinoxalin-2-yloxypyrrolidin-1-yl]quinazoline], the “basic auditory information processing” value (rats) is listed as “enhances”, the induced memory defects [1] is listed as “reversed” and the brain penetration [2] is listed as “highly brain penetrant”.
In the case of `CCNC(=O)c1sc(Nc2nc(Cl)cc(NCc3cccnc3)n2)nc1C` [BMS-843496, 2-((4-chloro-6-((pyridin-3-ylmethyl)amino)pyrimidin-2-yl)amino)-N-ethyl-4-methylthiazole-5-carboxamide], the “selectivity over other PDE families / family members / phosphodiesterases” value (other PDE family members [3]) is listed as > 100 fold, the Kd (PDE10A [4]) is listed as 0.15 nM and the IC50 (PDE10A [5]) is listed as 2.11 nM. For the same compound, the “antipsychotic effects, conditioned avoidance response model” value [6] was “correlated with antipsychotic effects”.
In the case of `Cn1cc(-c2ccncc2)c(-c2ccc(OCc3ccc4ccccc4n3)cc2)n1` [PF-02545920, 2-[[4-(1-methyl-4-pyridin-4-ylpyrazol-3-yl)phenoxy]methyl]quinolone], the IC50 (other PDE family members [7]) is given as > 1000 nM, the “secreted levels of TNFα” value [8] is given as “significantly reduced” and the “secreted levels of IL-6” value [9] is given as “significantly reduced”. For the same compound, the “secreted levels of IL-8” value [9] was “significantly reduced” and the “IL-8 induced neutrophil activation” value [10] was “dose dependently inhibited”.
For `COc1cn(-c2ccc(-n3cccn3)cc2F)nc(-c2ccnn2-c2ccccc2)c1=O` [TAK-063, 1-(2-fluoro-4-pyrazol-1-ylphenyl)-5-methoxy-3-(2-phenylpyrazol-3-yl)pyridazin-4-one], the IC50 (other PDE family members [7]) is listed as > 5000 nM, the “secreted levels of IL-6” value [9] is listed as “significantly reduced” and the “secreted levels of IL-8” value [9] is listed as “significantly reduced”.
For `Cc1ncc(C)n2nc(/C=C/c3nc(N4CCCC4)cc(N4CCOCC4)n3)nc12` [PDM-042, (E)-4-(2-(2-(5,8-dimethyl-[1,2,4]triazolo[1,5-a]pyrazin-2-yl)vinyl)-6-(pyrrolidin-1-yl)pyrimidin-4-yl) morpholine], the conditioned avoidance response [11] is listed as “attenuated”, the IC50 (human PDE10) is listed as < 1 nM and the “selectivity over other PDE families / family members / phosphodiesterases” value (other PDE family members [3]) is listed as “more than 1000 fold”. For the same compound, the IC50 (rat PDE10) was < 1 nM, the MK-801-induced hyperlocomotion [12] was “significantly antagonized” and the spontaneous locomotor activity [12] was “without affecting”.
For `CC(=O)N1CCC(c2nccnc2Oc2ccc(C(=O)c3nc4ccccc4[nH]3)cc2)CC1` [AMG-579, 1-[4-[3-[4-(1H-benzimidazole-2-carbonyl)phenoxy]pyrazin-2-yl]piperidin-1-yl]ethanone], the IC50 (other PDE family members [3]; read-out: IC50 against all other PDE isoforms) is listed as > 30000 nM and the oral bioavailability [13] is listed as “orally bioavailable”.
